This is an account of results in patent US8884030B2, “Inhibitors of Flaviviridae viruses” (priority 2010, dated 2014).

Molecules are shown by their SMILES.

The assay deals with human hepatoma Huh-7 cell line harboring a HCV replicon. Briefly: HCV replicon assay (inhibition of viral replication, luciferase). In kind it is cell-based. The following applies: Hepatitis C virus, 72 h; 2 μM; Huh-7 HCV replicon cells, 3 days incubation; inhibition of viral replication; read-out: % inhibition at 2 μM. The protocol:
The anti-HCV activity of the compounds of this invention was tested in a human hepatoma Huh-7 cell line harboring a HCV replicon. The assay comprised the following steps:
Step 1: Compound Preparation and Serial Dilution.
Serial dilution was performed in 100% DMSO in a 384-well plate. A solution containing a compound at 225-fold concentration of the starting final serial dilution concentration was prepared in 100% DMSO and 15 uL added to the pre-specified wells in column 3 or 13 of a polypropylene 384-well plate. The rest of the 384-well plate was filled with 10 uL 100% DMSO except for columns 23 and 24, where 10 uL of 500 uM a HCV protease inhibitor (ITMN-191) in 100% DMSO was added. The HCV protease inhibitor was used a control of 100% inhibition of HCV replication. The plate was then placed on a Biomek FX Workstation to start the serial dilution. The serial dilution was performed for ten cycles of 3-fold dilution from column 3 to 12 or from column 13 to 22.
Step 2: Cell Culture Plate Preparation and Compound Addition
To each well of a black polypropylene 384-well plate, 90 μL of cell media containing 1600 suspended Huh-7 HCV replicon cells was added with a Biotek uFlow Workstation. A volume of 0.4 μL of the compound solution was transferred from the serial dilution plate to the cell culture plate on a Biomek FX Workstation. The DMSO concentration in the final assay condition was 0.44%. The plates were incubated for 3 days at 37° C. with 5% CO2 and 85% humidity.
Step 3: Detection of Cytotoxicity and Inhibition of Viral Replication
a) Assessment of cytotoxicity: The media in the 384-well cell culture plate was aspirated with a Biotek EL405 plate-washer. A volume of 50 μL of a solution containing 400 nM Calcein AM in 100% PBS was added to each well of the plate with a Biotek uFlow Workstation. The plate was incubated for 30 minutes at room temperature before the fluorescence signal ([…]) was measured with a Perkin Elmer Envision Plate Reader.
b) Assessment of inhibition of viral replication: The calcein-PBS solution in the 384-well cell culture plate was aspirated with a Biotek EL405 plate-washer. A volume of 20 μL of Dual-Glo luciferase buffer (Promega, Dual-Glo Luciferase Assay Reagent, cat. #E298B) was added to each well of the plate with a Biotek uFlow Workstation. The plate was incubated for 10 minutes at room temperature. A volume of 20 μL of a solution containing 1:100 mixture of Dual-Glo Stop & Glo substrate(Promega, Dual-Glo Luciferase Assay Reagent, cat. #E313B) and Dual-Glo Stop & Glo buffer (Promega, Dual-Glo Luciferase Assay Reagent, cat. #E314B) was then added to each well of the plate with a Biotek uFlow Workstation. The plate was incubated at room temperature for 10 minutes before the luminescence signal was measured with a Perkin Elmer Envision Plate Reader.
The percent cytotoxicity was determined by calcein AM conversion to fluorescent product. The average fluorescent signal from the DMSO control wells were defined as 100% nontoxic. The individual fluorescent signal from testing compound treated well was divided by the average signal from DMSO control wells and then multiplied by 100% to get the percent viability. The percent anti-HCV replication activity was determined by the luminescence signal from the testing well compared to DMSO controls wells. The background signal was determined by the average luminescence signal from the HCV protease inhibitor treated wells and was subtracted from the signal from the testing wells as well as the DMSO control wells. Following 3-fold serial dilutions, the EC50 and CC50 values were calculated by fitting % inhibition at each concentration to the following equation: % inhibition=100%[(EC50/[l])^b+1]
Where b is Hill's coefficient. See, for reference, Hill, A. V., The Possible Effects of the Aggregation of the Molecules of Hæmoglobin on its Dissociation Curves, J. Physiol. 40: iv-vii. (1910). […]
A general note: In antiviral work, replicon cells carry a viral genome segment that copies itself.
Broadly, the inhibition is the percentage by which the read-out fell short of the control. Consider `CC(C)(C)C#Cc1cc(N(C(=O)[C@H]2CC[C@H](C)CC2)[C@H]2CCN(C(=O)OC3(C)CCN(C(=O)OC(C)(C)C)C3)C2)c(C(=O)O)s1` (stereo in doubt) [Compound 67, 3-(S)-{3-[[2-Carboxy-5-(3,3-dimethyl-but-1-ynyl)-thiophene-3-yl](trans-4-methyl-cyclohexanecarbonyl)-amino]-pyrrolidine-1-carbonyloxy}-3-methyl-pyrrolidine-1-carboxylic acid tert-butyl ester], for which the inhibition at 2 µM amounted to 99%. As for `CC(C)(C)C#Cc1cc(N(C(=O)[C@H]2CC[C@H](C)CC2)C2CCN(C(=O)OC3CCNCC3)CC2)c(C(=O)O)s1` [Compound 31, 4-[[2-carboxy-5-(3,3-dimethyl-but-1-ynyl)-thiophen-3-yl]-(4-trans-methyl-cyclohexanecarbonyl)-amino]-piperidine-1-carboxylic acid piperidin-4-yl ester], the figure is 93.1%. In the case of `CC(C)(C)C#Cc1cc(N(C(=O)[C@H]2CC[C@H](C)CC2)C2CCC(NC(=O)OC3CCOCC3)CC2)c(C(=O)O)s1` (stereo partly drawn) [Compound 32, 5-(3,3-dimethyl-but-1-ynyl)-3-{(4-trans-methyl-cyclohexanecarbonyl)-[4-(tetrahydro-pyran-4-yloxycarbonylamino)-cyclohexyl]-amino}-thiophene-2-carboxylic acid], the inhibition at 2 µM worked out at 100%. As to `CC(C)(C)C#Cc1cc(N(C(=O)[C@H]2CC[C@H](C)CC2)[C@H]2CCN(C(=O)O[C@@H]3CNC(=O)C3)C2)c(C(=O)O)s1` [Compound 33, 3-(S)-[[2-carboxy-5-(3,3-dimethyl-but-1-ynyl)-thiophen-3-yl]-(4-trans-methyl-cyclohexanecarbonyl)-amino]-pyrrolidine-1-carboxylic acid 5-oxo-pyrrolidin-3-(S)-yl ester], the inhibition at 2 µM was 96.2%. For `CC(C)(C)C#Cc1cc(N(C(=O)[C@H]2CC[C@H](C)CC2)[C@H]2CCN(C(=O)O[C@H]3CNC(=O)C3)C2)c(C(=O)O)s1` [Compound 34, 3-(S)-[[2-carboxy-5-(3,3-dimethyl-but-1-ynyl)-thiophen-3-yl]-(4-trans-methyl-cyclohexanecarbonyl)-amino]-pyrrolidine-1-carboxylic acid 5-oxo-pyrrolidin-3-(R)-yl ester] the value was 97.8%. As for `CC(C)(C)C#Cc1cc(N(C(=O)[C@H]2CC[C@H](C)CC2)[C@H]2CCN(C(=O)O[C@H]3CO[C@H]4OCC[C@H]43)C2)c(C(=O)O)s1` [Compound 35, 3-(S)-[[2-Carboxy-5-(3,3-dimethyl-but-1-ynyl)-thiophen-3-yl]-(4-methyl-cyclohexanecarbonyl)-amino]-pyrrolidine-1-carboxylic acid hexahydro-furo[2,3-b]furan-3-(R)-yl ester], the figure is 99.8%. On to `CC(C)(C)C#Cc1cc(N(C(=O)[C@H]2CC[C@H](C)CC2)C2CCN(C(=O)O[C@H]3CO[C@H]4OCC[C@H]43)CC2)c(C(=O)O)s1` [Compound 36, 4-[[2-carboxy-5-(3,3-dimethyl-but-1-ynyl)-thiophen-3-yl]-(4-methyl-cyclohexanecarbonyl)-amino]-piperidine-1-carboxylic acid hexahydro-furo[2,3-b]furan-3-(R)-yl ester], for which the inhibition at 2 µM turned out to be 100%. In the case of `CC(C)(C)C#Cc1cc(N(C(=O)[C@H]2CC[C@H](C)CC2)[C@H]2CCN(C(=O)O[C@@H]3CCCN(C(=O)OC(C)(C)C)C3)C2)c(C(=O)O)s1` [Compound 37, 3-(R)-{3-(S)-[[2-carboxy-5-(3,3-dimethyl-but-1-ynyl)-thiophen-3-yl]-(4-trans-methyl-cyclohexanecarbonyl)-amino]-pyrrolidine-1-carbonyloxy}-piperidine-1-carboxylic acid tert-butyl ester], the inhibition at 2 µM amounted to 99.6%. Consider `CC(C)(C)C#Cc1cc(N(C(=O)[C@H]2CC[C@H](C)CC2)[C@H]2CCN(C(=O)O[C@@H]3CCCNC3)C2)c(C(=O)O)s1` [Compound 38, 3-(S)-[[2-carboxy-5-(3,3-dimethyl-but-1-ynyl)-thiophen-3-yl]-(4-trans-methyl-cyclohexanecarbonyl)-amino]-pyrrolidine-1-carboxylic acid piperidin-3-(R)-yl ester], for which the inhibition at 2 µM was 99.6%. As for `CC(C)(C)C#Cc1cc(N(C(=O)[C@H]2CC[C@H](C)CC2)[C@H]2CCN(C(=O)OC3CCN(C(=O)OC(C)(C)C)CC3)C2)c(C(=O)O)s1` [Compound 39, 4-{3-(S)-[[2-carboxy-5-(3,3-dimethyl-but-1-ynyl)-thiophen-3-yl]-(4-trans-methyl-cyclohexanecarbonyl)-amino]-pyrrolidine-1-carbonyloxy}-piperidine-1-carboxylic acid tert-butyl ester], the figure is 98.8%; as for `CC(C)(C)C#Cc1cc(N(C(=O)[C@H]2CC[C@H](C)CC2)[C@H]2CCN(C(=O)OC3CCNCC3)C2)c(C(=O)O)s1` [Compound 40, 3-(S)-[[2-carboxy-5-(3,3-dimethyl-but-1-ynyl)-thiophen-3-yl]-(4-trans-methyl-cyclohexanecarbonyl)-amino]-pyrrolidine-1-carboxylic acid piperidin-4-yl ester], 98.6%.

In the case of `CC(C)(C)C#Cc1cc(N(C(=O)[C@H]2CC[C@H](C)CC2)[C@H]2CCN(C(=O)OC3CCOCC3)C2)c(C(=O)O)s1` [Compound 41, 3-(S)-[[2-carboxy-5-(3,3-dimethyl-but-1-ynyl)-thiophen-3-yl]-(4-trans-methyl-cyclohexanecarbonyl)-amino]-pyrrolidine-1-carboxylic acid tetrahydro-pyran-4-yl ester], the inhibition at 2 µM worked out at 99.9%. As for `CC(C)(C)C#Cc1cc(N(C(=O)[C@H]2CC[C@H](C)CC2)[C@H]2CCN(C(=O)O[C@@H]3CCOC3)C2)c(C(=O)O)s1` [Compound 42, 3-(S)-[[2-carboxy-5-(3,3-dimethyl-but-1-ynyl)-thiophen-3-yl]-(4-trans-methyl-cyclohexanecarbonyl)-amino]-pyrrolidine-1-carboxylic acid tetrahydro-furan-3-(R)-yl ester], the figure is 99.9%; as for `CC(C)(C)C#Cc1cc(N(C(=O)[C@H]2CC[C@H](C)CC2)[C@H]2CCN(C(=O)O[C@H]3CCNC3=O)C2)c(C(=O)O)s1` [Compound 43, 3-(S)-[[2-carboxy-5-(3,3-dimethyl-but-1-ynyl)-thiophen-3-yl]-(4-trans-methyl-cyclohexanecarbonyl)-amino]-pyrrolidine-1-carboxylic acid 2-oxo-pyrrolidin-3-(R)-yl ester], 96.2%; as for `CC(C)(C)C#Cc1cc(N(C(=O)[C@H]2CC[C@H](C)CC2)C2CCC(NC(=O)OC3CCN(C(=O)OC(C)(C)C)CC3)CC2)c(C(=O)O)s1` (stereo partly drawn) [Compound 44, 4-{4-[[2-carboxy-5-(3,3-dimethyl-but-1-ynyl)-thiophen-3-yl]-(4-trans-methyl-cyclohexanecarbonyl)-amino]-cyclohexylcarbamoyloxy}-piperidine-1-carboxylic acid tert-butyl ester], 100%. In the case of `CC(C)(C)C#Cc1cc(N(C(=O)[C@H]2CC[C@H](C)CC2)C2CCC(NC(=O)OC3CCNCC3)CC2)c(C(=O)O)s1` (stereo partly drawn) [Compound 45, 5-(3,3-dimethyl-but-1-ynyl)-3-{(4-trans-methyl-cyclohexanecarbonyl)-[4-(piperidin-4-yloxycarbonylamino)-cyclohexyl]-amino}-thiophene-2-carboxylic acid], the inhibition at 2 µM worked out at 100%.
